From PubChem BioAssay (NCI)
Several values for one entry are separate records, joined by “and”; a condition that tells them apart may be missing. Equal entries are not always repeated.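 Protocol summary: plate cells (96-well), add compound at 5 concentrations, incubate 48 h, interpolate endpoints linearly. GI50 is the concentration that inhibits growth by half. Definition used: TGI = concentration required for complete inhibition of growth.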

Tests used:
Test in all cases: NCI anticancer screen, dose series, 48 h
[1] = tested on: PC-3 prostate
[2] = tested on: A498 renal
[3] = tested on: RXF 393 renal
[4] = tested on: K-562 leukemia
[5] = tested on: SK-MEL-28 melanoma
[6] = tested on: UACC-257 melanoma
[7] = tested on: NCI-H23 lung
[8] = tested on: SF-295 CNS
[9] = tested on: MDA-MB-231 breast
[10] = tested on: LOX IMVI melanoma

SMILES	GI50 [1]	TGI [1]	GI50 [2]	TGI [2]	GI50 [3]	TGI [3]	GI50 [4]	TGI [4] [µM]	TGI [5]	TGI [6] [µM]	TGI [7] [µM]	TGI [8] [µM]	TGI [9] [µM]	TGI [10] [µM]	GI50 [6] [µM]	GI50 [8] [µM]	GI50 [9] [µM]	GI50 [5] [µM]	GI50 [7] [µM]	GI50 [10] [µM]
O=C1C=CC(=O)c2c(O)c(N3CCN(CCOCCO)CC3)c(Cl)c(O)c21	1.67 µM [middle of 4 runs]	3.23 µM [middle of 4 runs]	2.57 µM [middle of 4 runs]	5.65 µM [middle of 4 runs]	0.192 µM and 0.344 µM and 1.35 µM	0.422 µM and 1.1 µM and 2.96 µM	0.265 µM and 0.0439 µM	> 100	2.89 µM [middle of 4 runs]	–	–	–	–	–	–	–	–	–	–	–
COC(=O)C1=C(O)C(C(=O)OC)[C@]2(O)[C@H](C(=O)OC)[C@H]1C[C@@H](c1ccc([N+](=O)[O-])cc1)[C@H]2C(=O)OC (stereo partly specified)	–	51.9 µM	–	–	–	32.4 µM	–	> 100	50.9 µM	> 100	31.4	> 100	83.9	32	–	–	–	–	–	–
Cc1csc(NC(=NCCN2CCOCC2)Nc2nc(C)cs2)n1	–	–	–	> 100 µM	–	> 100 µM	–	> 100	> 100 µM	> 100	> 100	> 100	–	> 100	–	–	–	–	–	–
O=C(NNCc1ccc(Cl)cc1)Nc1cccc2ccccc12	–	> 100 µM	–	–	–	> 100 µM	–	> 100	> 100 µM	> 100	> 100	> 100	–	> 100	–	–	–	–	–	–
COC(=O)c1c(-c2ccc(Cl)cc2)cc2c3ccccc3n(C)c2c1C(=O)OC	–	> 100 µM	–	> 100 µM	–	–	–	> 100	> 100 µM	> 100	> 100	> 100	> 100	> 100	–	–	–	–	–	–
COc1ccccc1CNCCCCCCCCCCCCN1C(=O)c2ccc3c4c(ccc(c24)C1=O)C(=O)N(CCCCCCCCCCCCNCc1ccccc1OC)C3=O	> 5 µM	> 5 µM	0.806 µM	1.8 µM	0.922 µM	2.11 µM	–	–	> 50 µM	> 5	–	> 50	> 50	–	> 5	2.24	> 50	> 50	–	–
O=C1c2ccccc2C(=O)N1c1nc(-c2ccc(Cl)cc2)cc(N2N=C(c3ccc(Br)cc3)CC2c2ccccc2)n1 (stereo unspecified)	–	> 27.5 µM	–	35.4 µM	–	–	–	> 100	21.4 µM	> 41.4	> 22.6	3.65	23.3	3.78	–	–	–	–	–	–
CCN(CC)c1nc(N(C)C)c2ccccc2n1	–	> 100 µM	–	–	–	76.6 µM	–	44.5	> 100 µM	> 100	> 100	> 100	> 100	> 100	–	–	–	–	–	–
Cc1cc2cc3c(cc2c(-c2ccc(N)cc2)n1)OCO3	–	> 100 µM	–	–	–	–	–	92	–	> 100	> 100	> 100	> 100	–	–	–	–	–	–	–
NS(=O)(=O)c1ccc(NNc2c3ccccc3nc3c(C(=O)Nc4ccc(S(=O)(=O)Nc5ncccn5)cc4)cccc23)cc1	–	> 25 µM	–	–	–	> 25 µM	–	> 25	> 25 µM	> 25	> 25	> 25	> 25	> 25	–	–	–	–	–	–
C=C(C)[C@@H]1CC[C@]2(C(=O)O)CC[C@]3(C)[C@H](CCC4[C@@]5(C)CC[C@H](C(=O)/C=C/c6ccc(O)c(O)c6)C(C)(C)[C@@H]5CC[C@]43C)[C@@H]12 (stereo partly specified)	–	21.8 µM	–	–	–	> 100 µM	–	> 100	–	11	9.62	18.4	35.7	> 100	–	–	–	–	–	–
CC1(C2CCC3(C)OC3C2)CO1 (stereo unspecified)	–	–	–	–	–	> 100 µM	–	> 100	> 100 µM	> 100	> 100	> 100	–	> 100	–	–	–	–	–	–
COc1c(C)c(C/C=C(\C)CC/C=C(\C)CCC=C(C)C)c(OC)c(OC)c1OC	–	> 100 µM	–	–	–	> 100 µM	–	> 100	–	> 100	> 100	> 100	> 100	> 100	–	–	–	–	–	–
CCN(CC)c1ccc2cc(-c3nc4ccccc4c(=O)[nH]3)c(=N)oc2c1	–	> 100 µM	–	–	–	> 100 µM	–	> 100	> 100 µM	> 100	–	> 100	> 100	> 100	–	–	–	–	–	–
CO[C@]1(CN2CCN3CCCC[C@@H]3C2)/C=C/C[C@H](C)[C@@H](C)S(=O)(=O)NC(=O)c2ccc3c(c2)N(C[C@@H]2CC[C@H]21)C[C@@]1(CCCc2cc(Cl)ccc21)CO3	–	–	2.68 µM	6.48 µM	–	–	2.28 µM	6.57	3.44 µM	9.34	2.29	–	3.27	–	2.82	–	1.78	1.86	1.03	–
C/C(=N\Nc1nc2ccccc2[nH]1)c1cc2ccccc2cn1	–	–	–	0.665 µM	–	–	–	> 100	0.429 µM	5.67	1.64	–	1.97	1.48	–	–	–	–	–	–
O=C1c2ccccc2-c2[nH]c3cn[nH]c(=O)c3c21	–	> 100 µM	–	> 100 µM	–	–	–	> 100	–	> 100	> 100	> 100	> 100	> 100	–	–	–	–	–	–

SMILES	GI50 [1]	TGI [1]	GI50 [2]	TGI [2]	GI50 [3]	TGI [3]	GI50 [4]	TGI [4] [µM]	TGI [5]	TGI [6] [µM]	TGI [7] [µM]	TGI [8] [µM]	TGI [9] [µM]	TGI [10] [µM]	GI50 [6] [µM]	GI50 [8] [µM]	GI50 [9] [µM]	GI50 [5] [µM]	GI50 [7] [µM]	GI50 [10] [µM]
C#CCC1(C(=O)OCC)C(=O)c2ccccc2N(C)C1=O (stereo unspecified)	–	–	–	> 100 µM	–	–	–	> 100	> 100 µM	–	36.9	> 100	–	> 100	–	–	–	–	–	–
CSc1ccc(/C=C2\N=C(c3ccccc3)N(/N=C/c3cc4cc(C)ccc4nc3Cl)C2=O)cc1	–	38 µM	–	43 µM	–	–	–	57.2	37.6 µM	39.8	–	44.7	47.6	44.6	–	–	–	–	–	–
S=C(NCc1ccccc1)N/N=C/c1ccccn1	–	> 100 µM	–	> 100 µM	–	–	–	> 100	> 100 µM	> 100	> 100	–	> 100	21.5	–	–	–	–	–	–
Cc1[nH]c(=O)[nH]c(=S)c1C(=O)Nc1cccc2cc3ccccc3cc12	–	> 100 µM	–	> 100 µM	–	> 100 µM	–	> 100	> 100 µM	–	> 100	> 100	–	> 100	–	–	–	–	–	–
CC1OC2OC3C(OCC(O)C3O)OC(=O)[C@]34CCC(C)(C)CC3C3=CCC5[C@@]6(C)C[C@H](O)[C@H](OC7OC(CO)C(O)C(O)C7OC7OCC(OC(=O)CC(C)(O)CC(=O)OC1C(OC1OC(CO)C(O)C(O)C1O)C2O)C(O)C7O)[C@@](C)(CO)C6CC[C@@]5(C)[C@]3(C)CC4 (stereo partly specified)	–	16.9 µM	–	–	–	–	–	–	6.22 µM	12.7	14.1	13.4	21.1	20.6	–	–	–	–	–	–
CC(=O)/C(=C\c1ccc(Cl)c(Cl)c1)C(=O)C(C)CN(C)C (stereo unspecified)	–	17 µM	–	8.16 µM	–	–	–	–	21 µM	23.7	30.6	16.5	27.3	6.14	–	–	–	–	–	–
CC(=O)Nc1cc(Nc2cc(=O)[nH]c(=O)[nH]2)ccc1C	–	> 100 µM	–	> 100 µM	–	> 100 µM	–	> 100	> 100 µM	> 100	–	> 100	> 100	> 100	–	–	–	–	–	–
CC(=O)O[C@H]1CC[C@@]2(C)[C@H](CC[C@@H]3[C@@H]2CC[C@]2(C)[C@@H](c4ccc(=O)oc4)C[C@H]4O[C@]342)C1	–	–	–	4.96 µM	–	0.673 µM	–	13	20.9 µM	6.89	1.83	2.97	–	7.67	–	–	–	–	–	–
O=C(CC1Sc2ccccc2NC1=O)Nc1ccc(Cl)cc1 (stereo unspecified)	–	–	–	> 100 µM	–	67.2 µM	–	> 100	> 100 µM	> 100	> 100	> 100	–	> 100	–	–	–	–	–	–
COC(=O)[C@@H]1CN(C(=O)c2ccccc2)C(=O)N1C(=O)OCc1ccccc1	–	–	–	> 100 µM	–	> 100 µM	–	> 100	> 100 µM	> 100	> 100	> 100	> 100	> 100	–	–	–	–	–	–
CC1CC/C(=C\c2ccc(Cl)cc2)c2nc(N)c(C#N)c(-c3ccc(Cl)cc3)c21 (stereo unspecified)	–	> 100 µM	–	72.4 µM	–	–	–	> 100	> 100 µM	> 100	> 100	> 100	> 100	> 100	–	–	–	–	–	–
CC(=O)CC(=O)CCC(=O)O	–	–	–	–	–	> 100 µM	–	> 100	> 100 µM	> 100	> 100	> 100	–	> 100	–	–	–	–	–	–
CS(=O)(=O)NC12CCC(c3ccccc31)c1ccccc12	–	> 100 µM	–	> 100 µM	–	–	–	> 100	> 100 µM	–	> 100	–	> 100	> 100	–	–	–	–	–	–
COC(=O)CCCC(=O)NC1=C(NCc2ccccc2)C(=O)c2ccccc2C1=O	–	–	–	> 100 µM	–	–	–	> 100	> 100 µM	89.7	> 100	–	> 100	> 100	–	–	–	–	–	–
C=CC1CN2CCC1CC2C(O)c1ccnc2ccccc12 (stereo unspecified)	–	> 100 µM	–	–	–	> 100 µM	> 100 µM	> 100	> 100 µM	> 100	> 100	> 100	> 100	> 100	–	–	–	–	–	> 100
O=C1C=CC(=O)c2c(Cl)ccc(O)c21	–	–	–	> 100 µM	–	29.7 µM	–	> 74	33 µM	29.8	17.1	> 57	–	37.2	–	–	–	–	–	–
